Data taken from US10889564B2, “Tetrahydroindazoles and medical uses thereof” (Genase Therapeutics B.V., priority 2015, dated 2021).

Key:
Format in all cases: cell-based
ARN8 melanoma cells = experiment: Sulforhodamine B assay of cancer cell growth and/or viability; settings: ARN8; 2 μM; 72 hours; absence of excess uridine
Procedure: ARN8 melanoma cells are seeded at a density of 500 cells per well of a 96 well plate. Following 24 hours of incubation, cells are treated with increasing concentrations of the compound of Example 8 in the absence or presence of excess uridine (100 micromolar). Cells are incubated for 72 hours after which the growth medium is removed from the cells and replaced by […] of 1× sterile PBS and 50 μL of 40% trichloroacetic acid in dH2O. Samples are incubated at 4° C. for 1 h to fix the cells. The plate is then washed with 3 changes of water with all liquid allowed to drain from the plate. […] of 0.1% sulforhodamine B in 1% acetic acid in H2O is added to each well and incubated for 30 minutes. Excess dye is washed out with three changes of 1% acetic acid in H2O with all liquid allowed to drain from the plate. The remaining dye is solubilized in 100 microliters of 10 mM un-buffered basic Tris per well and absorbance read at 570 nm.

[1] = test system: p53 synthesis in ARN8 melanoma cells; experiment: p53 synthesis, 35S-Met pulse labelling and p53 immunoprecipitation; settings: 5 h treatment, 35S-Met 30 minutes, FIG. 3
Procedure: Incorporation of 35S-Met in the p53 immunoprecipitate was determined by autoradiography. This experiment was performed in duplicate (Exp. 1 and Exp. 2).

[2] = test system: p21 expression in ARN8 melanoma cells; experiment: Levels of p53 and downstream targets (hdm2, pig3, p21) with nutlin-3; settings: 1 h then 2 μM nutlin-3 for 18 h, FIG. 4
Procedure: Levels of p53 and downstream targets hdm2, pig3 (band indicated by arrow) and p21 were determined. Levels of gapdh were used to monitor protein loading. Pig3 is a known pro-apoptotic protein.

A375 wtTP53, melanoma = experiment: WST-1 assay; settings: 72 hours
Procedure: (§1) Adherent cell lines were cultured overnight prior to the addition of the compound of Example 1, whereas non-adherent cell lines were treated immediately after seeding. TP53 status in each cell line is indicated. All cells were grown in 10% FBS. p53 wild type or mutant status (wtTP53 or mtTP53) and tumor cell line origin are indicated. The results obtained are shown below and in FIG. 10.

A431 mtTP53, skin cancer = experiment: WST-1 assay; settings: 72 hours
Procedure: as §1

[3] = test system: HCT116 wtTP53, colon cancer; experiment: WST-1 assay; settings: 72 hours
Procedure: as §1

[4] = test system: HT29 mtTP53, colon cancer; experiment: WST-1 assay; settings: 72 hours
Procedure: as §1

JVM2 wtTP53, lymphoma = experiment: WST-1 assay; settings: 72 hours
Procedure: as §1

K562 mtTP53, leukemia = experiment: WST-1 assay; settings: 72 hours
Procedure: as §1

L428 mtTP53, lymphoma = experiment: WST-1 assay; settings: 72 hours
Procedure: as §1

MV4-11 wtTP53, leukemia = experiment: WST-1 assay; settings: 72 hours
Procedure: as §1

NB4 mtTP53, leukemia = experiment: WST-1 assay; settings: 72 hours
Procedure: as §1

RKO wtTP53, colon cancer = experiment: WST-1 assay; settings: 72 hours
Procedure: as §1

Ramos mtTP53, lymphoma = experiment: WST-1 assay; settings: 72 hours
Procedure: as §1

U2OS wtTP53, sarcoma = experiment: WST-1 assay; settings: 72 hours
Procedure: as §1

ARN8s wtTP53, melanoma = experiment: WST-1 assay; settings: 72 hours
Procedure: TP53 status in each cell line is indicated. All cells were grown in 10% FBS. p53 wild type or mutant status (wtTP53 or mtTP53) and tumor cell line origin are indicated.

SMILES: O=C(NC1CCCc2c1cnn2-c1ccccc1F)c1ccccn1 (stereo not drawn) [Example 1, N-(1-(2-Fluorophenyl)-4,5,6,7-tetrahydro-1H-indazol-4-yl)picolinamide]
- viability at 2 µM (ARN8 melanoma cells): 53%
- p53 synthesis [1]: increases p53 synthesis
- nutlin-3 induced p21 expression [2]: Loss of nutlin-3 induced p21 expression
- metabolically active cells, percentage relative to the vehicle (DMSO) control (A375 wtTP53, melanoma; 1.23 μM): 85.95%
- metabolically active cells, percentage relative to the vehicle (DMSO) control (A375 wtTP53, melanoma; 3.70 μM): 50.62%
- metabolically active cells, percentage relative to the vehicle (DMSO) control (A375 wtTP53, melanoma; 11.11 μM): 45.86%
- metabolically active cells, percentage relative to the vehicle (DMSO) control (A375 wtTP53, melanoma; 33.30 μM): 32.67%
- metabolically active cells, percentage relative to the vehicle (DMSO) control (A431 mtTP53, skin cancer; 1.23 μM): 76.99%
- metabolically active cells, percentage relative to the vehicle (DMSO) control (A431 mtTP53, skin cancer; 3.70 μM): 52.31%
- metabolically active cells, percentage relative to the vehicle (DMSO) control (A431 mtTP53, skin cancer; 11.11 μM): 36.84%
- metabolically active cells, percentage relative to the vehicle (DMSO) control (A431 mtTP53, skin cancer; 33.30 μM): 27.93%
- metabolically active cells, percentage relative to the vehicle (DMSO) control ([3]; 1.23 μM): 75.69%
- metabolically active cells, percentage relative to the vehicle (DMSO) control ([3]; 3.70 μM): 50.13%
- metabolically active cells, percentage relative to the vehicle (DMSO) control ([3]; 11.11 μM): 28.40%
- metabolically active cells, percentage relative to the vehicle (DMSO) control ([3]; 33.30 μM): 14.51%
- metabolically active cells, percentage relative to the vehicle (DMSO) control ([4]; 1.23 μM): 70.23%
- metabolically active cells, percentage relative to the vehicle (DMSO) control ([4]; 3.70 μM): 23.19%
- metabolically active cells, percentage relative to the vehicle (DMSO) control ([4]; 11.11 μM): 25.66%
- metabolically active cells, percentage relative to the vehicle (DMSO) control ([4]; 33.30 μM): 12.11%
- metabolically active cells, percentage relative to the vehicle (DMSO) control (JVM2 wtTP53, lymphoma; 1.23 μM): 86.30%
- metabolically active cells, percentage relative to the vehicle (DMSO) control (JVM2 wtTP53, lymphoma; 3.70 μM): 75.36%
- metabolically active cells, percentage relative to the vehicle (DMSO) control (JVM2 wtTP53, lymphoma; 11.11 μM): 44.68%
- metabolically active cells, percentage relative to the vehicle (DMSO) control (JVM2 wtTP53, lymphoma; 33.30 μM): 38.31%
- metabolically active cells, percentage relative to the vehicle (DMSO) control (K562 mtTP53, leukemia; 1.23 μM): 63.91%
- metabolically active cells, percentage relative to the vehicle (DMSO) control (K562 mtTP53, leukemia; 3.70 μM): 57.69%
- metabolically active cells, percentage relative to the vehicle (DMSO) control (K562 mtTP53, leukemia; 11.11 μM): 55.28%
- metabolically active cells, percentage relative to the vehicle (DMSO) control (K562 mtTP53, leukemia; 33.30 μM): 53.35%
- metabolically active cells, percentage relative to the vehicle (DMSO) control (L428 mtTP53, lymphoma; 1.23 μM): 67.78%
- metabolically active cells, percentage relative to the vehicle (DMSO) control (L428 mtTP53, lymphoma; 3.70 μM): 33.84%
- metabolically active cells, percentage relative to the vehicle (DMSO) control (L428 mtTP53, lymphoma; 11.11 μM): 32.76%
- metabolically active cells, percentage relative to the vehicle (DMSO) control (L428 mtTP53, lymphoma; 33.30 μM): 34.80%
- metabolically active cells, percentage relative to the vehicle (DMSO) control (MV4-11 wtTP53, leukemia; 1.23 μM): 60.26%
- metabolically active cells, percentage relative to the vehicle (DMSO) control (MV4-11 wtTP53, leukemia; 3.70 μM): 36.85%
- metabolically active cells, percentage relative to the vehicle (DMSO) control (MV4-11 wtTP53, leukemia; 11.11 μM): 19.73%
- metabolically active cells, percentage relative to the vehicle (DMSO) control (MV4-11 wtTP53, leukemia; 33.30 μM): 15.79%
- metabolically active cells, percentage relative to the vehicle (DMSO) control (NB4 mtTP53, leukemia; 1.23 μM): 79.47%
- metabolically active cells, percentage relative to the vehicle (DMSO) control (NB4 mtTP53, leukemia; 3.70 μM): 65.73%
- metabolically active cells, percentage relative to the vehicle (DMSO) control (NB4 mtTP53, leukemia; 11.11 μM): 42.77%
- metabolically active cells, percentage relative to the vehicle (DMSO) control (NB4 mtTP53, leukemia; 33.30 μM): 36.19%
- metabolically active cells, percentage relative to the vehicle (DMSO) control (RKO wtTP53, colon cancer; 1.23 μM): 83.37%
- metabolically active cells, percentage relative to the vehicle (DMSO) control (RKO wtTP53, colon cancer; 3.70 μM): 42.62%
- metabolically active cells, percentage relative to the vehicle (DMSO) control (RKO wtTP53, colon cancer; 11.11 μM): 36.36%
- metabolically active cells, percentage relative to the vehicle (DMSO) control (RKO wtTP53, colon cancer; 33.30 μM): 29.16%
- metabolically active cells, percentage relative to the vehicle (DMSO) control (Ramos mtTP53, lymphoma; 1.23 μM): 87.94%
- metabolically active cells, percentage relative to the vehicle (DMSO) control (Ramos mtTP53, lymphoma; 3.70 μM): 54.16%
- metabolically active cells, percentage relative to the vehicle (DMSO) control (Ramos mtTP53, lymphoma; 11.11 μM): 42.35%
- metabolically active cells, percentage relative to the vehicle (DMSO) control (Ramos mtTP53, lymphoma; 33.30 μM): 40.94%
- metabolically active cells, percentage relative to the vehicle (DMSO) control (U2OS wtTP53, sarcoma; 1.23 μM): 98.88%
- metabolically active cells, percentage relative to the vehicle (DMSO) control (U2OS wtTP53, sarcoma; 3.70 μM): 70.03%
- metabolically active cells, percentage relative to the vehicle (DMSO) control (U2OS wtTP53, sarcoma; 11.11 μM): 51.63%
- metabolically active cells, percentage relative to the vehicle (DMSO) control (U2OS wtTP53, sarcoma; 33.30 μM): 50.16%
- metabolically active cells, percentage relative to the vehicle (DMSO) control (ARN8s wtTP53, melanoma; 1.23 μM): 68.69%
- metabolically active cells, percentage relative to the vehicle (DMSO) control (ARN8s wtTP53, melanoma; 3.70 μM): 40.86%
- metabolically active cells, percentage relative to the vehicle (DMSO) control (ARN8s wtTP53, melanoma; 11.11 μM): 35.13%
